{"source": "ChEMBL document CHEMBL1134328", "about": "(J Med Chem, 2001)", "data": [{"target": "T1, Neuronal acetylcholine receptor subunit alpha-7 (Rattus norvegicus, UniProt Q05941)", "T1 sequence (Q05941 whole entry)": "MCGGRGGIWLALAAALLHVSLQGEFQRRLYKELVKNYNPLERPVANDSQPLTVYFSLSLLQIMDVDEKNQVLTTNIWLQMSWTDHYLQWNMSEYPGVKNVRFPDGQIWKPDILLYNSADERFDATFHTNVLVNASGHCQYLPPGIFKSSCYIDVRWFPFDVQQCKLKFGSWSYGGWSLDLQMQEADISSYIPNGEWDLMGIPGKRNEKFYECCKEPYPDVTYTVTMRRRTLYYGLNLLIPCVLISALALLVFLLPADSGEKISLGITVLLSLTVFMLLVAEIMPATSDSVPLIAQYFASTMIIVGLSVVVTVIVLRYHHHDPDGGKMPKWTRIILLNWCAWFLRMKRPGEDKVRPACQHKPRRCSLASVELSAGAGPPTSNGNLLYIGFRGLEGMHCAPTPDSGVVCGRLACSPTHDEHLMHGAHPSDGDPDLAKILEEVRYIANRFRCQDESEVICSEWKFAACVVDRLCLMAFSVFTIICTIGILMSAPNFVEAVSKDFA", "assay": "In vitro binding affinity towards Nicotinic acetylcholine receptor alpha7 using [125I]alpha-bungarotoxin in rat brain", "format": "tissue-based", "units": {"Ki": "µM"}, "values": [{"compound": "CN1CCCC[C@H]1[C@H]1CCc2cc(O)ccc2O1", "note": "(racemic)", "Ki": "> 10"}, {"compound": "CN1CCCC[C@H]1[C@@H]1CCc2cc(O)ccc2O1", "note": "(racemic)", "Ki": "> 10"}, {"compound": "CN1CCCC[C@H]1[C@H]1CCc2ccccc2O1", "note": "(racemic)", "Ki": "> 10"}, {"compound": "Cc1ncccc1OCC1CCCN1", "note": "(single isomer, unassigned; form 1) [POZANICLINE]", "Ki": "> 10"}, {"compound": "CN1CCCC[C@H]1[C@@H]1CCc2ccccc2O1", "note": "(racemic)", "Ki": "> 10"}, {"compound": "Cc1ncccc1OCC1CCCN1", "note": "(single isomer, unassigned; form 2)", "Ki": "> 10"}]}, {"target": "T1, Neuronal acetylcholine receptor subunit alpha-7", "assay": "biochemical", "units": {"Ki": "µM"}, "description": "In vitro binding affinity towards Nicotinic acetylcholine receptor alpha7 using [125I]-alpha-Bungarotoxin in rat brain", "values": [{"compound": "O=c1cccc2n1C[C@@H]1CNC[C@H]2C1", "note": "[CYTISINICLINE]", "Ki": 0.0009}]}]}
